Reference: PMC5908784, “Extracellular loops 2 and 3 of the calcitonin receptor selectively modify agonist binding and efficacy” (Biochemical Pharmacology, 2018)
Changes are numbered by the printed parent chain. Where no end group is shown, it is not given here.

Legend:
Experiment in all cases: Homologous whole cell competition binding
Details in all cases: homologous competition of 125I-sCT(8-32), whole cells, mean ± S.E.M., SEM
hCTR V283A = target: T1, hCTR V283A (Homo sapiens, UniProt P30988, V283A)
T1 construct: expressed in transfected cells
T1 sequence (P30988 25-474 V283A): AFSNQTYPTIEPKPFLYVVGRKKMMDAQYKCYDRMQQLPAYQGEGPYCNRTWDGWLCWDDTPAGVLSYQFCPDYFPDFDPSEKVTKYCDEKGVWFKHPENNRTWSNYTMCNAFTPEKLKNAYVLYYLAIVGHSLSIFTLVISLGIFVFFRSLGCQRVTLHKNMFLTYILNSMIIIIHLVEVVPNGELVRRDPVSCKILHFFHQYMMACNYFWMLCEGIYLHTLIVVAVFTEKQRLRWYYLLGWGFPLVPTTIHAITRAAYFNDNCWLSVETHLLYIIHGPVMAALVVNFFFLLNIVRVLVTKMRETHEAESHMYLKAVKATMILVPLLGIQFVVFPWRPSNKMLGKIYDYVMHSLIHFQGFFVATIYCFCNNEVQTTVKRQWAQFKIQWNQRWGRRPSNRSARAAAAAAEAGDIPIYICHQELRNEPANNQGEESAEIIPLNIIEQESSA
Summary of the method: (§1)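 Cells were seeded, cultured overnight, then exposed overnight at 4 °C to two concentrations of ^125I-sCT(8-32) with increasing unlabelled sCT(8-32). Unbound ligand was washed off before counting. Affinity is given as pKi after radioligand occupancy correction.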

hCTR T280A = target: T2, hCTR T280A (Homo sapiens, UniProt P30988, T280A)
T2 construct: expressed in transfected cells
T2 sequence (P30988 25-474 T280A): T1 sequence (P30988 25-474 V283A) with T256A, A259V
Summary of the method: as §1

hCTR R281A = target: T3, hCTR R281A (Homo sapiens, UniProt P30988, R281A)
T3 construct: expressed in transfected cells
T3 sequence (P30988 25-474 R281A): T1 sequence (P30988 25-474 V283A) with R257A, A259V
Summary of the method: as §1

hCTR S364A = target: T4, hCTR S364A (Homo sapiens, UniProt P30988, S364A)
T4 construct: c-Myc (N); expressed in transfected cells
T4 sequence (P30988 25-474 S364A): T1 sequence (P30988 25-474 V283A) with A259V, S340A
Summary of the method: as §1

“VLGKLSQELHKLQTYPRTNTGSGTP-NH2 [sCT(8-32)]” gave a Ki (hCTR V283A) of 0.214 nM, a Ki (hCTR T280A) of 0.245 nM and a Ki (hCTR R281A) of 0.851 nM. It also gave a Ki (hCTR S364A) of 0.191 nM.
